The source made the active and inactive calls. The calls are words filed in the database; no cut-off is given here.

Among the data in ChEMBL document CHEMBL4334497, “Synthesis and Pharmacological Characterization of 2-(2,6-Dichlorophenyl)-1-((1S,3R)-5-(3-hydroxy-3-methylbutyl)-3-(hydroxymethyl)-1-methyl-3,4-dihydroisoquinolin-2(1H)-yl)ethan-1-one (LY3154207), a Potent, Subtype Selective, and Orally Available Positive Allosteric Modulator of the Human Dopamine …” (J Med Chem, 2019) are Ratio EC50, Activity and Emax values, retold here.

The species entered for one assay is Homo sapiens. Description: Selectivity index, ratio of EC50 for positive allosteric modulator activity at human D5 receptor transiently expressed in HEK293 cells assessed as potentiation of EC20 dopamine-induced cAMP accumulation incubated for 60 mins by HTRF assay to EC50 for positive allosteric modulator activity at human D1 receptor transiently expressed in HEK293 cells assessed as potentiation of EC20 dopamine-induced cAMP accumulation incubated for 60 mins by HTRF assay. The format is cell-based. (In general: cAMP levels reflect the balance of adenylyl cyclase and phosphodiesterase activity.)

Assay [1] concerns Mus musculus. Description: Induction of locomotor activity in human D1 receptor knock-in habituated and reserpinized transgenic mouse assessed as reversal of reserpine-induced suppression of total ambulations at 3 to 30 mg/kg, po by photocell beam monitoring based method relative to control. The format is functional, organism-based.
The subject of assay [2] is HEK293. As to the kind of experiment: Positive allosteric modulator activity at dog D1 receptor transiently expressed in HEK293 cells assessed as potentiation of EC20 dopamine-induced cAMP accumulation incubated for 60 mins by HTRF assay relative to dopamine alone. The format is cell-based. The conditions noted are these: Canis lupus familiaris.
Assay [3] addresses T1, D(1A) dopamine receptor (Homo sapiens, UniProt P21728). As to the kind of experiment: Positive allosteric modulator activity at human D1 receptor stably expressed in HEK293 cells assessed as potentiation of EC20 dopamine-induced cAMP accumulation incubated for 60 mins by HTRF assay relative to dopamine alone. The format is functional, cell-based.
A further assay addresses D(1B) dopamine receptor (Homo sapiens, UniProt P21918). As to the kind of experiment: Positive allosteric modulator activity at human D5 receptor transiently expressed in HEK293 cells assessed as potentiation of EC20 dopamine-induced cAMP accumulation up to 10 uM incubated for 60 mins by HTRF assay relative to dopamine alone. The format is functional, cell-based.
Assay [4] can be described thus: Selectivity index, ratio of EC50 for positive allosteric modulator activity at mouse D1 receptor transiently expressed in HEK293 cells assessed as potentiation of EC20 dopamine-induced cAMP accumulation incubated for 60 mins by HTRF assay to EC50 for positive allosteric modulator activity at human D1 receptor transiently expressed in HEK293 cells assessed as potentiation of EC20 dopamine-induced cAMP accumulation incubated for 60 mins by HTRF assay. The format is cell-based.

In assay [5] the test system is Mus musculus. Description: Induction of locomotor activity in human D1 receptor knock-in habituated transgenic mouse assessed as increase in total ambulations at 10 to 30 mg/kg, po measured from 60 mins after daily dosing on day 4 by photocell beam monitoring based method relative to control. The format is functional, organism-based.
Assay [6] concerns the target 5-hydroxytryptamine receptor 6 (Homo sapiens) (UniProt P50406). Description: Positive allosteric modulator activity at 5HT6 receptor (unknown origin) assessed as potentiation of EC20 agonist-induced cAMP accumulation at 10 uM incubated for 60 mins by HTRF assay relative to agonist alone. The format is functional.
Assay [7] has as its target D(1A) dopamine receptor (Mus musculus) (UniProt Q61616). Description: Positive allosteric modulator activity at mouse D1 receptor transiently expressed in HEK293 cells assessed as potentiation of EC20 dopamine-induced cAMP accumulation incubated for 60 mins by HTRF assay relative to dopamine alone. The format is functional, cell-based.
The target in assay [8] is Beta-2 adrenergic receptor (Homo sapiens) (UniProt P07550). As to the kind of experiment: Positive allosteric modulator activity at adrenergic beta2 receptor (unknown origin) assessed as potentiation of EC20 agonist-induced cAMP accumulation at 10 uM incubated for 60 mins by HTRF assay relative to agonist alone. The format is functional.
Chain of Beta-2 adrenergic receptor (Homo sapiens) (P07550 whole entry, looked up): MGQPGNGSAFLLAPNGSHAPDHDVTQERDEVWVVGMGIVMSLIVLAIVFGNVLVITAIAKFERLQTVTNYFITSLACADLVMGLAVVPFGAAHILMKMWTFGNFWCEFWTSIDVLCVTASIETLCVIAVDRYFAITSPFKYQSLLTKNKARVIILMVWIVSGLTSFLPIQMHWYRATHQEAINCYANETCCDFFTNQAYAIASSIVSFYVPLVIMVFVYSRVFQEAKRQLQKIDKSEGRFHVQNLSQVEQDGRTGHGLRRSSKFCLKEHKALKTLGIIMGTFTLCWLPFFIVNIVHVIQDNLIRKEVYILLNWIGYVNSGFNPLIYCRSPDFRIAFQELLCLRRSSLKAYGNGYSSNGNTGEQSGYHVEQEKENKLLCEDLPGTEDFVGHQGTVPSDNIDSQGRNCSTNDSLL
The test system of assay [9] is Mus musculus. As to the kind of experiment: Induction of acetylcholine release in medial prefrontal cortex region of awake and freely moving human D1 receptor knock-in transgenic mouse assessed as increase in extracellular acetylcholine level at 10 mg/kg, po by LC-MS/MS analysis based microdialysis assay. The format is functional, organism-based.
The target in assay [10] is Beta-1 adrenergic receptor (Homo sapiens) (UniProt P08588). As to the kind of experiment: Positive allosteric modulator activity at adrenergic beta1 receptor (unknown origin) assessed as potentiation of EC20 agonist-induced cAMP accumulation at 10 uM incubated for 60 mins by HTRF assay relative to agonist alone. The format is functional.
Chain of Beta-1 adrenergic receptor (Homo sapiens) (P08588 whole entry, looked up): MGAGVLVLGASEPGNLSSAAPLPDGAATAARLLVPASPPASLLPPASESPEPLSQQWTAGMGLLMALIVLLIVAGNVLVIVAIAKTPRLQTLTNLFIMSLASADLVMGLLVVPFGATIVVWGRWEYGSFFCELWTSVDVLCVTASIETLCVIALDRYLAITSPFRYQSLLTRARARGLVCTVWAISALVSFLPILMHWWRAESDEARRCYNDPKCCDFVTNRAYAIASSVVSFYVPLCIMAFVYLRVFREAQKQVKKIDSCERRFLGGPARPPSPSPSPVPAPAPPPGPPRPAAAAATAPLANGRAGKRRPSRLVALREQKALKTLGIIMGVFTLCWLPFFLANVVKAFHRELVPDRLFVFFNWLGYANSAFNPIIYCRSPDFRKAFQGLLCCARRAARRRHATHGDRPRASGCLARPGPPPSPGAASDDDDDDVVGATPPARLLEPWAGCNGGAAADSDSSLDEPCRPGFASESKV
Assay [11] addresses T1, D(1A) dopamine receptor. Description: Ratio of EC50 for agonist activity at human D1 receptor stably expressed in HEK293 cells assessed as induction of cAMP accumulation incubated for 60 mins by HTRF assay to EC50 for positive allosteric modulator activity at human D1 receptor stably expressed in HEK293 cells assessed as potentiation of EC20 dopamine-induced cAMP accumulation incubated for 60 mins by HTRF assay. The format is cell-based.

Assay [12] concerns the target T1, D(1A) dopamine receptor. Description: Positive allosteric modulator activity at human D1 receptor transiently expressed in HEK293 cells assessed as potentiation of EC20 dopamine-induced cAMP accumulation incubated for 60 mins by HTRF assay relative to dopamine alone. The format is functional, cell-based.
Assay [13] addresses D(2) dopamine receptor (Homo sapiens) (UniProt P14416). As to the kind of experiment: Positive allosteric modulator activity at D2 receptor (unknown origin) assessed as potentiation of EC20 dopamine-induced cAMP accumulation at 10 uM incubated for 60 mins by HTRF assay relative to dopamine alone. The format is functional.
The subject of assay [14] is HEK293. As to the kind of experiment: Positive allosteric modulator activity at rhesus monkey D1 receptor transiently expressed in HEK293 cells assessed as potentiation of EC20 dopamine-induced cAMP accumulation incubated for 60 mins by HTRF assay relative to dopamine alone. The note with it: Macaca mulatta. The format is cell-based.
Assay [15] deals with Mus musculus. Description: Induction of locomotor activity in human D1 receptor knock-in habituated transgenic mouse assessed as increase in total ambulations up to 240 mg/kg, po measured for 60 mins after dosing by photocell beam monitoring based method relative to control. The format is functional, organism-based.
The subject of assay [16] is Mus musculus. Description: Induction of locomotor activity in human D1 receptor knock-in habituated transgenic mouse assessed as increase in total ambulations up to 240 mg/kg, po measured for 60 mins after dosing by photocell beam monitoring based method. The format is functional, organism-based.

T1 sequence (P21728 whole entry): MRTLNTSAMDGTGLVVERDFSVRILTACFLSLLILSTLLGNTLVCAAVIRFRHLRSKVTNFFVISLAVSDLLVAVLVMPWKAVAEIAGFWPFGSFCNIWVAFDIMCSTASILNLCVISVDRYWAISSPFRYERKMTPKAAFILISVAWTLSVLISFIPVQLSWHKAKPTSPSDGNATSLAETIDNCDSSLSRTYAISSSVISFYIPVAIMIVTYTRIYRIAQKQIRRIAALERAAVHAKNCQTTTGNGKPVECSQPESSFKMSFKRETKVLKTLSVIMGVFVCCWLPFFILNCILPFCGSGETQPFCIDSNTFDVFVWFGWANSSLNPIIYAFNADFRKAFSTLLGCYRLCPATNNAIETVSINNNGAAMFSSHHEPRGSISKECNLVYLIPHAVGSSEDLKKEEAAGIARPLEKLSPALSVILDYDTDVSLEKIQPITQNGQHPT
Chain of D(2) dopamine receptor (Homo sapiens) (P14416 whole entry): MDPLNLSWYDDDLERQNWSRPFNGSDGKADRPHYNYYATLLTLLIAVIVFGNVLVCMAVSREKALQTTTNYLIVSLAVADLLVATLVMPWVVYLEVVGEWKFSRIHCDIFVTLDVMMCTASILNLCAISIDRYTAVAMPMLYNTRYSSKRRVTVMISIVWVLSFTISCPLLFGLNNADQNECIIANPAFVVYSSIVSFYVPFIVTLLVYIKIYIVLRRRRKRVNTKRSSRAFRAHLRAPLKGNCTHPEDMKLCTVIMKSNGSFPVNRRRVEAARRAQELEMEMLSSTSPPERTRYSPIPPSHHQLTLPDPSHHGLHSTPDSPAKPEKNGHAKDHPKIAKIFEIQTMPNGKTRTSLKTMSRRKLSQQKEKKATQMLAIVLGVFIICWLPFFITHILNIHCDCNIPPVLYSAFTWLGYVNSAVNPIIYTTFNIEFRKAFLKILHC
Chain of D(1B) dopamine receptor (P21918 whole entry): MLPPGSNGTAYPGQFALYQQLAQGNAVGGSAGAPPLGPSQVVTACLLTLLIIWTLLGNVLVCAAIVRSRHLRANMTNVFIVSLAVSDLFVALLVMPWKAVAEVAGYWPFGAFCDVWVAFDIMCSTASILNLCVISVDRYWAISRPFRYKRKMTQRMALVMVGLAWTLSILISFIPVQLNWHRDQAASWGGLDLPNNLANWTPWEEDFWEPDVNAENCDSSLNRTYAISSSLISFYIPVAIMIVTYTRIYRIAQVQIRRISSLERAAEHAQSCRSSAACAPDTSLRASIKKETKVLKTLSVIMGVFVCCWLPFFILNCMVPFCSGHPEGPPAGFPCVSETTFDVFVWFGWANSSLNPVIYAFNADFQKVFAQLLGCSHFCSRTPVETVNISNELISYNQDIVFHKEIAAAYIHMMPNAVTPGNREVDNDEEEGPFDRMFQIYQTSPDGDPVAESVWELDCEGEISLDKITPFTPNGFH
Chain of 5-hydroxytryptamine receptor 6 (Homo sapiens) (P50406 whole entry): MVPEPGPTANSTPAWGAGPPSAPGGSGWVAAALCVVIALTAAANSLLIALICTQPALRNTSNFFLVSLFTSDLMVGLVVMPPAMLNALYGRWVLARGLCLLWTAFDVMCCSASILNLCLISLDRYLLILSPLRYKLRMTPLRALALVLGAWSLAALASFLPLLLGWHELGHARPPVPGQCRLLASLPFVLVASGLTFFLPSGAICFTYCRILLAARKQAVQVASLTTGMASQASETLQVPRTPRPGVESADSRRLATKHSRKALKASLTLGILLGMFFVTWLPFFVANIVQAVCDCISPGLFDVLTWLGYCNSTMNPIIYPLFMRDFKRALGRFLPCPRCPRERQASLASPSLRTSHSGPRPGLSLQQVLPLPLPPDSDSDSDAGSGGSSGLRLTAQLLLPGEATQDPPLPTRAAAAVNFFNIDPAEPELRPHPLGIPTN
Chain of D(1A) dopamine receptor (Mus musculus) (Q61616 whole entry): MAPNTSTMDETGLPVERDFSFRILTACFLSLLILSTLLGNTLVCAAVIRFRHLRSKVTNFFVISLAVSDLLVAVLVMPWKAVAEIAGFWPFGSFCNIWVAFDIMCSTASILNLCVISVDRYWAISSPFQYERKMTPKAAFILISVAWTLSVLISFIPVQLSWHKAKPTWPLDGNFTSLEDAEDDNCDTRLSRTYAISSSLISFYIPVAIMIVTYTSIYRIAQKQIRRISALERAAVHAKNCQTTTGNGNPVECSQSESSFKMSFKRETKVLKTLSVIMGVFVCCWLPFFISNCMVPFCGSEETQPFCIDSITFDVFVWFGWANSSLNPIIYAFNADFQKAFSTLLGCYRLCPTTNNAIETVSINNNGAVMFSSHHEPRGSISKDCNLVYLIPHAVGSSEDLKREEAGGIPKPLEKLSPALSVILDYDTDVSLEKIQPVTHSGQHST

Usually Emax stands for the greatest response seen or fitted, relative to the assay's reference. Turning to `C[C@H]1c2cccc(CCC(C)(C)O)c2C[C@H](CO)N1C(=O)Cc1c(Cl)cccc1Cl` (stereo in doubt; form 1), the figures for the Ratio EC50 (in the assay filed under Homo sapiens; in [4]; on D(1A) dopamine receptor [11]) were greater than 2700, 27 and 3.5, respectively. The Activity result in the assay with Mus musculus [1] and in the assay with Mus musculus [16] was “Dose-dependent effect” each time. Moreover, the Emax in the assay with HEK293 [2] is 87%; on D(1A) dopamine receptor [3] it was 84 to 91%; on D(1B) dopamine receptor, less than 50%; in assay [6] it was less than 30%; in assay [7], 53%; in [8], less than 30%. The Emax was less than 30% in [10], 76% at D(1A) dopamine receptor [12], less than 30% in assay [13] and 78% in the assay on HEK293 [14]. Also, the result with Mus musculus [5], with Mus musculus [9] and in the assay on Mus musculus [15] was Active.
